Measured values from US8349844B2, “Substituted pyrazolo [1,5-A] pyrimidines as metabotropic glutamate antagonists” (Hoffmann-La Roche Inc., priority 2005, dated 2013).

Legend:
rat mGlu2 receptor = target: T1, rat mGlu2 receptor (Rattus norvegicus, UniProt P31421); assay: [3H]-LY354740 binding on mGlu2 transfected CHO cell membranes; settings: [3H]-LY354740 (10 nM) displacement
T1 construct: expressed in transfected cells; membranes prepared from them
Text: [^3H]-LY354740 Binding on mGlu2 Transfected CHO Cell Membranes. Transfection and Cell Culture
cDNA encoding the rat mGlu2 receptor protein in pBluescript II was subcloned into the eukaryotic expression vector pcDNA I-amp from Invitrogen Ltd (Paisley, UK). This vector construct (pcD1mGR2) was co-transfected with a psvNeo plasmid encoding the gene for neomycin resistance, into CHO cells by a modified calcium phosphate method described by Chen & Okayama (1988). The cells were maintained in Dulbecco's Modified Eagle medium with reduced L-glutamine (2 mM final concentration) and 10% dialysed foetal calf serum from Gibco-Invitrogen (Carlsbad, Calif., USA). Selection was made in the presence of G-418 (1000 ug/ml final) and […]. Clones were identified by reverse transcription of 5 μg total RNA, followed by PCR using mGlu2 receptor specific primers 5′-[…]-3′ and 5′-[…]-3′ in 60 mM Tris HCl (pH 10), 15 mM (NH4)2SO4, 2 mM MgCl2, 25 units/ml Taq Polymerase with 30 cycles annealing at 60° C. for 1 min., extention at 72° C. for 30 s, and 1 min. 95° C. denaturation.
Cells, cultured as above, were harvested and washed three times with cold PBS and frozen at −80° C. The pellet was resuspended in cold 20 mM HEPES-NaOH buffer containing 10 mM EDTA (pH 7.4), and homogenised with a polytron (Kinematica, A G, Littau, Switzerland) for 10 s at 10 000 rpm. After centrifugation for 30 min. at 4° C., the pellet was washed once with the same buffer, and once with cold 20 mM HEPES-NaOH buffer containing 0.1 mM EDTA, (pH 7.4). Protein content was measured using the micro BCA method from Pierce-Perbio (Rockford, Ill., USA) using bovine serum albumin as standard.
After thawing, the membranes were resuspended in cold 50 mM Tris-HCl buffer containing 2 mM MgCl2 (pH 7) (binding buffer). The final concentration of the membranes in the assays was 25 μg protein/ml. Inhibition experiments were performed with membranes incubated with 10 nM [^3H]-LY354740 at room temperature, for 1 hour, in presence of various concentrations of the compound to be tested. Following the incubations, membranes were filtered onto Whatmann GF/B glass fiber filters and washed 5 times with cold binding buffer. Non specific binding was measured in the presence of 10 μM DCG IV. After transfer of the filters into plastic vials containing 10 ml of Ultima-gold scintillation fluid from Perkin-Elmer (Boston, Mass., USA), the radioactivity was measured by liquid scintillation in a Tri-Garb 2500 TR counter (Packard, Zürich, Switzerland).
The inhibition curves were fitted with a four parameter logistic equation giving IC50 values, and Hill coefficients.

T1 sequence (P31421 19-872): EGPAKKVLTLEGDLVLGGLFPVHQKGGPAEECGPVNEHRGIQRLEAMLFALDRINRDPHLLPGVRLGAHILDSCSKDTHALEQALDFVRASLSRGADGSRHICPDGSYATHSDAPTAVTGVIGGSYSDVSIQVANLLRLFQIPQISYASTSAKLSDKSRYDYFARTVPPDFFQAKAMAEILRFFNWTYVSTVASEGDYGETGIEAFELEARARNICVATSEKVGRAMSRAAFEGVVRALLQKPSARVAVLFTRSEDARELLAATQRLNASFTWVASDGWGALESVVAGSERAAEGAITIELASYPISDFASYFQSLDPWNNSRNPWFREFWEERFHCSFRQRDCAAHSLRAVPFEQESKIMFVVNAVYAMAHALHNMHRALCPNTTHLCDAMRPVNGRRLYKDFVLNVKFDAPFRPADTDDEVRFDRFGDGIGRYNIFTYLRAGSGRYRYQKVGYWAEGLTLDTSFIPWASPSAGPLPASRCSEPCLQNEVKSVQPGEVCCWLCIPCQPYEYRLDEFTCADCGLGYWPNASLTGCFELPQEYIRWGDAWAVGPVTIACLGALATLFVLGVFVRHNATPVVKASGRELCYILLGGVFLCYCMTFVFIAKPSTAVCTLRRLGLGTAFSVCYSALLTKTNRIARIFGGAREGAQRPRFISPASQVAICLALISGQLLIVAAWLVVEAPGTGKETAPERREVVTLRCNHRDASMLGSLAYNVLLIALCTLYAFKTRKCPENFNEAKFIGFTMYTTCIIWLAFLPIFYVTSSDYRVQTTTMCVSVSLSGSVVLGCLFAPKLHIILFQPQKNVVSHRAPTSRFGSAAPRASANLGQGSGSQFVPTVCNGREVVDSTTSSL

| Compound | Ki (rat mGlu2 receptor) [nM] | melting point [°C] |
| --- | --- | --- |
| NS(=O)(=O)c1cccc(-c2noc(-c3cnc4c(C(F)(F)F)cc(-c5ccc(C(F)(F)F)cc5)cn34)n2)c1 [Example 11, 3-{5-[8-Trifluoromethyl-6-(4-trifluoromethyl-phenyl)-imidazo[1,2-a]pyridin-3-yl]-[1,2,4]oxadiazol-3-yl}-benzenesulfonamide] | 8.8 | 297 |
| NS(=O)(=O)c1ccc(-c2noc(-c3cnn4c(C5CC5)cc(-c5ccc(Cl)cc5)nc34)n2)s1 [Example 20, 5-{5-[5-(4-Chloro-phenyl)-7-cydopropyl-pyrazolo[1,5-a]pyrimidin-3-yl]-[1,2,4]oxadiazol-3-yl}-thiophene-2-sulfonic acid amide] | 16.1 | 294 |
| NS(=O)(=O)c1ccc(-c2nc(-c3ncn4c(C(F)(F)F)cc(-c5ccc(C(F)(F)F)cc5)nc34)no2)cc1 [Example 21, 4-{3-[4-Trifluoromethyl-2-(4-trifluoromethyl-phenyl)-imidazo[1,5-a]pyrimidin-8-yl]-[1,2,4]oxadiazol-5-yl}-benzenesulfonamide] | 10.2 | 303 |
| Cc1cc(-c2ccc(Cl)cc2)cn2c(-c3nc(-c4ccc(S(N)(=O)=O)s4)no3)cnc12 [Example 41, 5-{5-[6-(4-Chloro-phenyl)-8-methyl-imidazo[1,2-a]pyridin-3-yl]-[1,2,4]oxadiazol-3-yl}-thiophene-2-sulfonic acid amide] | 21.3 | 271 |
| Cc1cc(-c2ccc(C(F)(F)F)cc2)cn2c(-c3nc(-c4ccc(N)nc4)no3)cnc12 [Example 47, 5-{5-[8-Methyl-6-(4-trifluoromethyl-phenyl)-imidazo[1,2-a]pyridin-3-yl]-[1,2,4]oxadiazol-3-yl}-pyridin-2-ylamine] | 7.7 | 257 |
| Cc1cc(-c2ccc(C(F)(F)F)cc2)cn2c(-c3nc(-c4cnc(N)nc4)no3)cnc12 [Example 48, 5-{5-[8-Methyl-6-(4-trifluoromethyl-phenyl)-imidazo[1,2-a]pyridin-3-yl]-[1,2,4]oxadiazol-3-yl}-pyrimidin-2-ylamine] | 6.5 | 302 |

Other lines, results leading:

| Ki (rat mGlu2 receptor) [nM] | melting point [°C] | Compound |
| --- | --- | --- |
| 5.6 | 275 | NS(=O)(=O)c1ccc(-c2noc(-c3cnn4c(C(F)(F)F)cc(-c5ccc(C(F)(F)F)cc5)nc34)n2)cc1 [Example 1, 4-{5-[7-Trifluoromethyl-5-(4-trifluoromethyl-phenyl)-pyrazolo[1,5-a]pyrimidin-3-yl]-[1,2,4]oxadiazol-3-yl}-benzenesulfonamide] |
| 48.1 | 199 | FC(F)(F)c1ccc(-c2cc(C(F)(F)F)n3ncc(-c4nc(-c5cccnc5)no4)c3n2)cc1 [Example 3, 3-(3-Pyridin-3-yl-[1,2,4]oxadiazol-5-yl)-7-trifluoromethyl-5-(4-trifluoromethyl-phenyl)-pyrazolo[1,5-a]pyrimidine] |
| 51 | 264 | Nc1ccc(-c2noc(-c3cnn4c(C(F)(F)F)cc(-c5cccc(C(F)(F)F)c5)nc34)n2)cn1 [Example 34, 5-{5-[7-Trifluoromethyl-5-(3-trifluoromethyl-phenyl)-pyrazolo[1,5-a]pyrimidin-3-yl]-[1,2,4]oxadiazol-3-yl}-pyridin-2-ylamine] |
| 14.6 | 295 | NS(=O)(=O)c1ccc(-c2noc(-c3ncn4c(C(F)(F)F)cc(-c5ccc(C(F)(F)F)cc5)nc34)n2)s1 [Example 42, 5-{5-[4-Trifluoromethyl-2-(4-trifluoromethyl-phenyl)-imidazo[1,5-a]pyrimidin-8-yl]-[1,2,4]oxadiazol-3-yl}-thiophene-2-sulfonic acid amide] |
| 14.5 | 254 | Nc1ncc(-c2noc(-c3cnn4c(C(F)(F)F)cc(-c5ccc(C(F)(F)F)cc5)nc34)n2)cn1 [Example 46, 5-{5-[7-Trifluoromethyl-5-(4-trifluoromethyl-phenyl)-pyrazolo[1,5-a]pyrimidin-3-yl]-[1,2,4]oxadiazol-3-yl}-pyrimidin-2-ylamine] |
| 25.5 | 243 | Cc1cc(-c2cc(C(F)F)n3ncc(-c4nc(-c5ccc(N)nc5)no4)c3n2)ccc1Cl [Example 77, 5-{5-[5-(4-Chloro-3-methyl-phenyl)-7-difluoromethyl-pyrazolo[1,5-a]pyrimidin-3-yl]-[1,2,4]oxadiazol-3-yl}-pyridin-2-ylamine] |
